Each structure is given as a SMILES string. Structures can show the parent of a compound that is named as a salt.

For one assay, the target named is SARS-CoV-2 Mac1 (Severe acute respiratory syndrome coronavirus 2, UniProt P0DTD1). In words: biochemical. The note with it: 100 µM; inhibitor.
For `COc1ccc(C[C@@H](C)NC[C@H](O)c2ccc(O)c(NC=O)c2)cc1` (racemic) [Formoterol Hemifumarate], the “%inhibition” value is listed as 0%. As to `COc1nc2ccc(Br)cc2cc1[C@@H](c1ccccc1)[C@@](O)(CCN(C)C)c1cccc2ccccc12` [Bedaquiline fumarate], the “%inhibition” value is 0%. On to `CCCCc1nc(Cl)c(CO)n1Cc1ccc(-c2ccccc2-c2nnn[nH]2)cc1` [Losartan], for which the “%inhibition” value was determined as 18.38%.

Take `Cc1ccc(C(=O)c2ccc(CC(=O)O)n2C)cc1` [Tolmetin]: the “%inhibition” value came out at 4.72%. In the case of `CC(C)c1nc(N(C)S(C)(=O)=O)nc(-c2ccc(F)cc2)c1/C=C/[C@@H](O)C[C@@H](O)CC(=O)O` [Rosuvastatin], the “%inhibition” value was found to be 7.223%.

For `CC1=NN(c2ccc(C)c(C)c2)C(=O)/C1=N\Nc1cccc(-c2cccc(C(=O)O)c2)c1O` [Eltrombopag Olamine], the “%inhibition” value came out at 18.42%. Still for that read-out and setting: with `CC1=C(C(=O)O)N2C(=O)[C@@H](NC(=O)[C@H](N)C3=CCC=CC3)[C@H]2SC1` [Cefradine] the figure was 0.656%.

Still in this assay, the particulars now being: read-out: %inhibition.
Take `C[C@]12C=CC(=O)C=C1CC[C@H]1[C@@H]3C[C@@H](O)[C@](O)(C(=O)CO)[C@@]3(C)C[C@H](O)[C@@]12F` [Triamcinolone]: the inhibition at 100 µM worked out at 16.5%. As for `Cn1nnnc1SCC1=C(C(=O)O)N2C(=O)[C@@H](NC(=O)[C@H](OC=O)c3ccccc3)[C@H]2SC1` [Cefamandole nafate], the inhibition at 100 µM was found to be 0%.

For `Cc1nnc(NS(=O)(=O)c2ccc(N)cc2)s1` [Sulfamethizole], the inhibition at 100 µM came to 15.9%. For the molecule `CN(C)[C@@H]1C(O)=C(C(N)=O)C(=O)[C@@]2(O)C(O)=C3C(=O)c4c(O)ccc(Cl)c4[C@@H](O)[C@H]3C[C@@H]12` [Demeclocycline HCl], the inhibition at 100 µM was 4.3%. As for `COc1ccc(Cl)c(Nc2nc3ccccc3nc2NS(=O)(=O)c2cccc(NC(=O)C(C)(C)N)c2)c1` [Pilaralisib (XL147)], the inhibition at 100 µM came out at 31.9%. Regarding `CN(C)CCC(c1ccc(Cl)cc1)c1ccccn1` (centres unmarked) [Chlorpheniramine Maleate], the inhibition at 100 µM was determined as 6.37%. Same read-out and setting: to `CC(C)[C@H](O)C(=O)N[C@@H](C)C(=O)N[C@@H]1C(=O)N(C)CCc2ccccc21` [Semagacestat (LY450139)] belongs 0%. With `CN1CCC(=C2c3ccccc3CCc3sccc32)CC1` [Pizotifen Malate], the inhibition at 100 µM was 0%. Regarding `COC(=O)N[C@@H](C)CNc1nccc(-c2cn(C(C)C)nc2-c2cc(Cl)cc(NS(C)(=O)=O)c2F)n1` [Encorafenib (LGX818)], the inhibition at 100 µM is 10.8%. On the same count and under the same terms, to `CC(C)(Sc1cc(C(C)(C)C)c(O)c(C(C)(C)C)c1)Sc1cc(C(C)(C)C)c(O)c(C(C)(C)C)c1` [Probucol] belongs 6.54%; to `OC1(c2ccc(Cl)c(C(F)(F)F)c2)CCN(CCCC(c2ccc(F)cc2)c2ccc(F)cc2)CC1` [Penfluridol], 5.86%. For `N#C/C(=C1/SC[C@@H](c2ccc(Cl)cc2Cl)S1)n1ccnc1` [Luliconazole], the inhibition at 100 µM worked out at 24.1%. On the same count and under the same terms, to `Nc1ccc(S(=O)(=O)Nc2nccs2)cc1` [Sulfathiazole] belongs 5.37%.

Turning to `CC[C@H]1CN2CC[C@H]1C[C@@H]2[C@@H](O)c1ccnc2ccc(OC)cc12` [Hydroquinidine], the inhibition at 100 µM is 4.48%. For the molecule `CCCC(=O)Nc1ncnc2c1ncn2[C@@H]1O[C@@H]2COP(=O)(O)O[C@H]2[C@H]1OC(=O)CCC` [Dibutyryl-cAMP (Bucladesine)], the inhibition at 100 µM turned out to be 4.86%.

Consider `COC(=O)C1=C(C)NC(C)=C(C(=O)OCC(C)C)C1c1ccccc1[N+](=O)[O-]` (centres unmarked) [Nisoldipine], for which the inhibition at 100 µM was 16.9%. On the same count and under the same terms, with `C[N+](C)(C)CCOC(=O)CCC(=O)OCC[N+](C)(C)C` [Succinylcholine Chloride Dihydrate] the figure was 0%; with `CNC1CCCN(c2c(F)cc3c(=O)c(C(=O)O)cn(C4CC4)c3c2OC)C1` (centres unmarked) [Balofloxacin], 0%. Consider `C=C[C@H]1CN2CC[C@H]1C[C@H]2[C@H](O)c1ccnc2ccc(OC)cc12` [Quinine HCl Dihydrate], for which the inhibition at 100 µM came out at 0%. Still for that read-out and setting: with `CCN(CC)CCOC(=O)c1ccc(N)cc1` [Procaine] the figure was 0%. In the case of `N[C@@H](C(=O)N[C@@H]1C(=O)N2C(C(=O)O)=C(Cl)CS[C@H]12)c1ccccc1` [Cefaclor], the inhibition at 100 µM turned out to be 0%. Regarding `Cc1c(C(C)C)c(=O)n(-c2ccccc2)n1C` [Propyphenazone (4-Isopropylantipyrine)], the inhibition at 100 µM came out at 0%. In the case of `CC(C)OC(=O)CCC/C=C\C[C@@H]1[C@@H](/C=C/C(F)(F)COc2ccccc2)[C@H](O)C[C@@H]1O` [Tafluprost], the inhibition at 100 µM is 4.8%. The same measure, in the same setting: to `O=C1OC2(c3ccc(O)cc3Oc3cc(O)ccc32)c2ccccc21` [Fluorescein] belongs 24.9%.

Take `CN[C@H](CC(C)C)C(=O)N[C@H]1C(=O)N[C@@H](CC(N)=O)C(=O)N[C@H]2C(=O)N[C@H]3C(=O)N[C@H](C(=O)N[C@H](C(=O)O)c4cc(O)cc(O)c4-c4cc3ccc4O)[C@H](O)c3ccc(c(Cl)c3)Oc3cc2cc(c3O[C@@H]2O[C@H](CO)[C@@H](O)[C@H](O)[C@H]2O[C@H]2C[C@](C)(N)[C@H](O)[C@H](C)O2)Oc2ccc(cc2Cl)[C@H]1O` [Vancomycin HCl]: the inhibition at 100 µM was 0%. For `C[N+]1(C)[C@@H]2C[C@@H](OC(=O)C(O)(c3cccs3)c3cccs3)C[C@H]1[C@@H]1O[C@@H]12` [Tiotropium Bromide hydrate], the inhibition at 100 µM came to 19.5%.

For `CNC(=O)c1cc(Oc2ccc(NC(=O)Nc3ccc(Cl)c(C(F)(F)F)c3)cc2)ccn1` [Sorafenib], the inhibition at 100 µM was found to be 15.7%. Consider `O=C1[C@@H]2[C@H]3CC[C@H](C3)[C@@H]2C(=O)N1C[C@@H]1CCCC[C@H]1CN1CCN(c2nsc3ccccc23)CC1` [lurasidone], for which the inhibition at 100 µM turned out to be 0%. Turning to `CC1(C)OC(=O)NC1=O` [5,5-Dimethyloxazolidine-2,4-dione], the inhibition at 100 µM was 0.163%.

As for `C#C[C@]1(O)CC[C@H]2[C@@H]3CCc4cc(OC)ccc4[C@H]3CC[C@@]21C` [Mestranol], the inhibition at 100 µM was 0%. Still for that read-out and setting: to `C=C[C@@H]1C[C@]1(NC(=O)[C@@H]1C[C@@H]2CN1C(=O)[C@H](C(C)(C)C)NC(=O)O[C@@H]1C[C@H]1CCCCCc1nc3ccc(OC)cc3nc1O2)C(=O)NS(=O)(=O)C1CC1` [Grazoprevir] belongs 0%. Regarding `CNCCC=C1c2ccccc2CCc2ccccc21` [Nortriptyline hydrochloride], the inhibition at 100 µM stood at 0%.

With `Cc1cnc(C(=O)O)c[n+]1[O-]` [Acipimox], the inhibition at 100 µM was determined as 14%. For the molecule `COc1ccc(Cl)cc1C(=O)NCCc1ccc(S(=O)(=O)NC(=O)NC2CCCCC2)cc1` [Glyburide (Glibenclamide)], the inhibition at 100 µM was determined as 8.25%.

Consider `NC(=O)NO` [Hydroxyurea], for which the inhibition at 100 µM is 20.8%. Still for that read-out and setting: to `CNCC(=O)c1ccc(O)c(O)c1` [Adrenalone HCl] belongs 6.88%; to `CC[C@@H]1C(=O)OC[C@@H]1Cc1cncn1C` [Pilocarpine HCl], 0%. Turning to `O=C1OC(CN2CCOCC2)CN1/N=C/c1ccc([N+](=O)[O-])o1` (centres unmarked) [Furaltadone HCl], the inhibition at 100 µM amounted to 15.8%. On to `NS(=O)(=O)c1cc(C2(O)NC(=O)c3ccccc32)ccc1Cl` (centres unmarked) [Chlorthalidone], for which the inhibition at 100 µM was 1.46%. As for `CCCCN(CCCC)CC(O)c1cc(Cl)cc2c1-c1ccc(Cl)cc1/C2=C/c1ccc(Cl)cc1` (centres unmarked) [Lumefantrine], the inhibition at 100 µM turned out to be 0%.

Regarding `C[C@@H](c1ncncc1F)[C@](O)(Cn1cncn1)c1ccc(F)cc1F` [Voriconazole], the inhibition at 100 µM was found to be 0%.

`CNCc1ccc(-c2[nH]c3cc(F)cc4c3c2CCNC4=O)cc1` [Rucaparib (AG-014699,PF-01367338) phosphate]: the inhibition at 100 µM came to 10.4%.

For the molecule `NS(=O)(=O)c1cc2c(cc1C(F)(F)F)NC(Cc1ccccc1)NS2(=O)=O` (centres unmarked) [Bendroflumethiazide], the inhibition at 100 µM came out at 0%.

Consider `OC[C@@H](O)[C@@H](O)[C@H](O)[C@@H](O)CO` [Sorbitol], for which the inhibition at 100 µM is 0%. As for `Nc1ccn([C@H]2CC[C@@H](CO)O2)c(=O)n1` [Zalcitabine], the inhibition at 100 µM is 19.2%. In the case of `O=C(NCCO[N+](=O)[O-])c1cccnc1` [Nicorandil], the inhibition at 100 µM turned out to be 15.7%.

`O=C1[C@H](CC[C@H](O)c2ccc(F)cc2)[C@@H](c2ccc(O)cc2)N1c1ccc(F)cc1` [Ezetimibe]: the inhibition at 100 µM was 5.79%.

For the molecule `CC(=O)O[C@H]1C[C@@H]2CC[C@@H]3[C@H](CC[C@@]4(C)[C@H]3C[C@H]([N+]3(C)CCCCC3)[C@@H]4OC(C)=O)[C@@]2(C)C[C@@H]1[N+]1(C)CCCCC1` [Pancuronium dibromide], the inhibition at 100 µM amounted to 0%. Same read-out and setting: to `NCCS` [Cysteamine HCl] belongs 35.3%; to `CN1C[C@@H]2C[C@H]1CN2c1cc2c(cc1F)c(=O)c(C(=O)O)cn2C1CC1` [Danofloxacin Mesylate], 0%. Turning to `NC(=O)CC[C@@H](N)C(=O)O` [D-glutamine], the inhibition at 100 µM is 2.59%. Same read-out and setting: with `CC(=O)O[C@]1(C(C)=O)CC[C@H]2[C@@H]3C[C@H](C)C4=CC(=O)CC[C@]4(C)[C@H]3CC[C@@]21C` [Medroxyprogesterone acetate] the figure was 26.1%; with `Cc1ccc(-c2ncc(Cl)cc2-c2ccc(S(C)(=O)=O)cc2)cn1` [Etoricoxib], 0%.

Consider `CCC(Cc1c(I)cc(I)c(N)c1I)C(=O)O` (centres unmarked) [Iopanoic acid], for which the inhibition at 100 µM was determined as 0%. As to `CC[C@]12CCCN3CCc4c(n(c5ccccc45)[C@@](O)(C(=O)OC)C1)[C@@H]32` [Vincamine], the inhibition at 100 µM came to 13.7%. Regarding `CC[C@H](C)[C@H](N)C(=O)O` [isoleucine], the inhibition at 100 µM was found to be 0%.

Take `Cc1ccc(NC(=O)c2ccc(CN3CCN(C)CC3)cc2)cc1Nc1nc(-c2cccnc2)cs1` [Masitinib (AB1010)]: the inhibition at 100 µM was 7.66%. `C=C1CCN([C@H](C)[C@](O)(Cn2cncn2)c2ccc(F)cc2F)CC1` [Efinaconazole]: the inhibition at 100 µM was 2.14%.

The record behind these values is article doi:10.1101/2021.10.07.463234v2 (biorxiv, 2021).
